Reference: US6124347A, “Chromene derivatives and salts thereof, and pharmaceuticals containing the same” (SSP Co., Ltd., priority 1997, dated 2000)
≈ marks a conversion by molar mass, not a printed value.

What follows are compounds tested on ovolysozyme (assay: AGE formation inhibitory action (lysozyme dimer formation with xylose, SDS-PAGE, silver staining)). Conditions: 1 mg/ml ovolysozyme, 100 mM xylose, pH 7.4, 37° C., 21 days; dimer (28.8 Kda) formation relative to control.
Type: biochemical
Method: With respect to each test compound, solutions of the test compound in dimethyl sulfoxide, said solutions containing said test compound at various concentrations, were each added together with 1 mg/ml of ovolysozyme and 100 mM of xylose to a phosphate-buffered physiological saline of pH 7.4. Each reaction mixture was then incubated at 37° C. for 21 days. A portion of the reaction mixture, said portion being in a predetermined amount, was then separated by sodium lauryl sulfate-polyacrylamide gel electrophoresis (SDS-PAGE). After the electrophoresis, the gel was treated by silver staining to stain proteins. AGE formation inhibitory action of the test compound was calculated in terms of 50% inhibitory concentration by image-processing and analyzing the degree of formation of the dimer (28.8 Kda) of lysozyme (14.4 Kda) relative to that in a control, that is, a reaction mixture not added with the test compound while making use of NIH Image Ver. 1.55.

| IC50 (AGE formation inhibitory action, 50% inhibitory concentration) | Structure (SMILES) |
| --- | --- |
| 10 µg/mL (≈ 33.6 µM) | Oc1cccc(C(O)CNCC2=Cc3ccccc3OC2)c1 (stereo not shown) [Compound 6] |
| 30 µg/mL (≈ 83.9 µM) | COc1cc(C(O)CNCC2=Cc3ccccc3OC2)cc(OC)c1O (stereo not shown) [Compound 9, 4-{2-[(2H-3-chromenylmethyl)amino]-1-hydroxyethyl}-2,6-dimethoxyphenol] |
| 3 µg/mL (≈ 8.74 µM) | COc1cccc2c1OCC(CNCC(O)c1ccc(O)c(O)c1)=C2 (stereo not shown) [Compound 15] |

| Structure (SMILES) | IC50 (AGE formation inhibitory action, 50% inhibitory concentration) |
| --- | --- |
| N=C(N)NN [Amionoguanidine, aminoguanidine, reference compound] | 30 µg/mL (≈ 405 µM) |
